This passage reports LC retention time results from the RepoRT retention time repository.

The nature of the data set: Agilent ZORBAX 300 SB-C18, 150 × 1 mm, 3.5 µm; A: water + 0.01% heptafluorobutyric acid; B: acetonitrile + 0.01% heptafluorobutyric acid; gradient (min/%B) 0/0 100/90. The conditions noted are these: stereoisomer not certain.
With `CC(=O)c1c[nH]cc1C`, the LC retention time came out at 7.66 min.

For `c1ccc2c(N3CCCCC3)nc(N3CCCC3)nc2c1`, the LC retention time is 11.7 min.

Regarding `CC(C)c1ccc(C=NNC(=O)C[n+]2ccccc2)cc1`, the LC retention time stood at 10.4 min. Under `CCCNC(C)C(=O)Nc1ccccc1C` (configuration not stated) stands 9.17 min; under `CCn1c2ccccc2c2cc(C(=O)O)ccc21`, 13.5 min; under `CC1N(CCC(N)=O)c2ccccc2C1(C)C` (configuration not stated), 11.8 min.

In the case of `O=S(=O)(O)CCN1CCOCC1`, the LC retention time was 1.67 min. With `COc1ccc(-c2cc(=O)c3cc(C)cc(C)c3o2)cc1OC`, the LC retention time is 15.2 min. Under `COC(=O)C1CCCNC1=O` (configuration not stated) stands 6.61 min; under `Nc1nc(N)c2nc(-c3ccccc3)c(N)nc2n1`, 8.71 min. For the compound `Cc1cc(C)nc(NC(N)=NCc2cccnc2)n1`, the LC retention time amounted to 7.87 min. Under `CC1(C)CC(NC(=O)C(=O)NC2CC(C)(C)NC(C)(C)C2)CC(C)(C)N1` stands 7.48 min. As to `NCCCc1ccccn1`, the LC retention time turned out to be 6.8 min. To `Cn1c(C(=O)O)cc2ccccc21` belongs 11.4 min; to `CC1(C)CC(NCC(=O)OC2CCCCC2)CC(C)(C)N1`, 8.55 min.

Consider `Cc1cccc(Cc2cnc[nH]2)c1C`, for which the LC retention time amounted to 9.65 min.

For the compound `C=CCC1(CC=C)CCCCN1`, the LC retention time was found to be 8.76 min. To `CC(=O)Nc1cccc(C(C)=O)c1` belongs 8.35 min.

As to `Cc1cc2ncn(Cc3c(C)c(C)cc(C)c3C)c2cc1C`, the LC retention time amounted to 13 min.

On to `CCCC[N+]1(CCCC)CC[N+](CCCC)(CCCC)CC1`, for which the LC retention time came to 9.16 min. Under `O=C(NCc1cccnc1)c1cccc2ccccc12` stands 9.17 min. On to `O=C(O)c1ccncn1`, for which the LC retention time is 2 min. Consider `CC(=O)NC1CCC2C3CC=C4CC(OC(C)=O)CCC4(C)C3CCC12C` (configuration not stated), for which the LC retention time came out at 16.7 min.

As to `NC(=O)N1CCC(CCCC2CCN(C(N)=O)CC2)CC1`, the LC retention time turned out to be 9.11 min. Under `Cc1cc(-c2noc(-c3ccco3)n2)c2ccccc2n1` stands 13.1 min; under `Cn1c(-c2c(-c3ccc4ccccc4n3)cnc3ccccc23)nc2ccccc21`, 12.3 min. To `c1ccc(-c2cnc(-c3ccncc3)o2)cc1` belongs 11.9 min; to `c1ccc2[nH]cnc2c1`, 7.09 min.

For `Nc1ccc(-c2cccs2)cc1`, the LC retention time was 10.5 min. Regarding `COc1ccc(NC(=O)c2ccc3c(c2)NC(=O)CO3)cc1OC`, the LC retention time was 9.62 min.

`Cc1ccc(CNC2CCCC2)o1`: the LC retention time was 8.53 min. Under `COC(=O)CCN1CCCCC1` stands 7.02 min; under `S=C(Nc1ccccn1)NC1CCCCC1`, 10.7 min; under `Cc1cccc(Nc2cc(C)nc3ccccc23)c1`, 10.4 min. Under `Cc1ccc(-n2cnnn2)nc1` stands 9.44 min; under `CCn1c(-c2ccccc2)nn(CN2CCCC2)c1=S`, 11.8 min. Under `CC(C)c1ccc(C=NNC(N)=S)cc1` stands 12.8 min. As for `CC(=O)C(=C1NC(C)(C)Cc2cc(C)c(C)cc21)c1ccccc1`, the LC retention time came to 17.6 min. Under `Cc1ccc(C)n1Cc1ccccc1` stands 16.8 min; under `C#CC(C)(CC)NC(=O)Cc1ccccc1` (configuration not stated), 12.2 min.

As to `CCCCCCCCCCC(N)=O`, the LC retention time stood at 15.3 min. Under `c1cncc(-c2nn[nH]n2)c1` stands 5.35 min; under `CN1CCCN=C1C=Cc1cccs1`, 8.55 min; under `Cc1ccc(C=C2CN(C)CC(=Cc3ccc(C)cc3)C2=O)cc1`, 12.3 min.

As for `CN1CCCCC1=O`, the LC retention time is 7.29 min. To `O=C1CCCc2c1[nH]c1ccc(C3CCCCC3)cc21` belongs 18.7 min; to `Nc1ccc2c(c1)C(=O)N(c1ccc3ccccc3c1)C2=O`, 13.6 min. Under `NC(=S)NC(N)=S` stands 6.5 min. Under `Cc1ncc(C[n+]2csc(CCOP(=O)(O)OP(=O)(O)O)c2C)c(N)n1` stands 1.62 min; under `c1ccc(-c2nc(-c3cccnc3)[nH]c2-c2ccccc2)cc1`, 11 min; under `CN(C)C(=O)Nc1ccccc1`, 8.37 min.

For `COC(=O)Nc1nc2ccc(Sc3ccccc3)cc2[nH]1`, the LC retention time was determined as 12.2 min. To `CNCCc1ccccc1` belongs 7.97 min. Under `CC(=O)NC(Cc1ccc(O)cc1)C(N)=O` (configuration not stated) stands 6.07 min. Under `NCC(=O)CCC(=O)O` stands 3.25 min; under `NC1=NCCS1`, 5.28 min; under `O=c1[nH][nH]c2c1CCCC2`, 7.38 min. Turning to `COc1ccc(C(=O)C=Cc2ccc(OC)c(COc3cccc(C)c3C)c2)cc1`, the LC retention time is 19.9 min. Turning to `Cc1cccc(N2CN(Cc3ccccc3)CNC2=S)c1C`, the LC retention time turned out to be 14.1 min. To `O=C(Nc1ccc(Nc2ccccc2)cc1)C(c1ccccc1)c1ccccc1` belongs 17.1 min; to `CCOC(=O)C1=CN(c2cc(C)ccc2C)C=C(C(=O)OCC)C1c1cccc(C)c1`, 21.5 min; to `CN(C)c1ccc(C(O)c2ccc(N(C)C)cc2)cc1`, 9.42 min. To `Oc1ccc2c3c1OC1C(O)CCC4(O)C(C2)N(CC2CCC2)CCC314` (configuration not stated) belongs 8.75 min. To `Cc1ccc(C(=O)NC(C)c2ccc(O)cc2)cc1` (configuration not stated) belongs 11.1 min; to `c1nc2c(ccc3[nH]cnc32)[nH]1`, 6.84 min. Turning to `C=Cc1ccccn1`, the LC retention time amounted to 6.97 min. To `CC(C)c1ccc(C(=O)CCN(C)C)cc1` belongs 9.8 min; to `CCSc1cccc2cccnc12`, 11.7 min; to `O=C1CCNc2cc3ccccc3cc21`, 12.1 min. With `CCn1c(=O)n(CC)c2cc(C=O)ccc21`, the LC retention time was determined as 10.2 min. To `c1ccc2nc3c(nc2c1)[nH]c1ccccc13` belongs 12 min; to `CN(C)CCCNCc1ccc2[nH]c3c(c2c1)CCCC3`, 8.71 min.

For the compound `CC(=O)N1C(=O)N(C(C)=O)C(O)C1O` (configuration not stated), the LC retention time came to 6.42 min.

Consider `CC(=O)c1c(-c2ccccc2)[nH]c2ccccc12`, for which the LC retention time was 13 min. Under `CN1CCC(OC(=O)Cc2ccccc2)CC1` stands 8.85 min; under `O=C(Cc1ccccc1)Nc1ccc(-c2nc(-c3ccccc3)c3cc(NC(=O)Cc4ccccc4)ccc3n2)cc1`, 17.8 min; under `C[N+](C)(N)Cc1ccccc1`, 7.54 min. To `CCNc1ccccc1C` belongs 8.47 min; to `COC(=O)c1cccc(N=C2N=C(N)c3ccccc32)c1`, 9.59 min. To `CCNCCNCC` belongs 6.88 min; to `c1ccc(Cc2nc3ccccc3[nH]2)cc1`, 9.23 min. For the compound `Cc1cccc(-n2c(C)nc3ccccc3c2=O)c1`, the LC retention time came out at 11.9 min. Under `NC(=O)c1cnc2ccccc2n1` stands 8.31 min; under `CC(=NNC(=O)CNC(=O)c1ccco1)c1ccc(C(C)(C)C)cc1`, 13.9 min; under `CC(=O)Nc1c(C)cc(C)cc1NC(=O)c1cc2ccccc2o1`, 12.5 min.

For the compound `Nc1nc(=Nc2ccccc2)n2c(n1)sc1ccccc12`, the LC retention time was 10.4 min.

As for `O=C(O)c1ccc2[nH]c3c(c2c1)CCCC3`, the LC retention time came out at 11.6 min. As for `CC(c1ccccc1)C1Nc2ccccc2C(=O)N1c1ccccc1` (configuration not stated), the LC retention time turned out to be 15 min. Under `S=C(NCc1ccccc1)NCc1ccc2[nH]c3c(c2c1)CCCC3` stands 15.4 min; under `Cc1nn(-c2ccc(NC(=O)c3ccco3)cc2)c(=O)c2ccccc12`, 12 min. Consider `CC(C)CNc1c(N)c(=O)oc2ccccc12`, for which the LC retention time stood at 11.9 min. On to `Cc1ccccc1Nc1nc(Nc2ccccc2C)c2ccccc2n1`, for which the LC retention time came to 12.5 min. To `Cc1nn(-c2ccc(C(=O)N3CCN(C)CC3)cc2)c(=O)c2ccccc12` belongs 8.65 min; to `S=C(NCc1ccc2[nH]c3c(c2c1)CCCC3)Nc1cccc2ccccc12`, 16 min. To `Cc1cccc(N)c1` belongs 8.01 min.

For the compound `Cc1ccc(N2C(=O)NC(=O)C(=Cc3cc(C)n(-c4ccccc4)c3C)C2=O)cc1`, the LC retention time is 15 min. In the case of `Cc1cccc(NC(=O)C(Cc2c[nH]c3ccccc23)NC(=O)C(c2ccccc2)c2ccccc2)c1C` (configuration not stated), the LC retention time is 16.7 min. Under `NCCCP(=O)(O)O` stands 1.3 min; under `c1ccc(CCn2cccc2)cc1`, 15.5 min. To `CNC(=O)c1cc2c(n(-c3ccccc3)c1=O)CCCC2=O` belongs 9.8 min; to `COc1ccc2c(=O)cc(-c3ccccc3)oc2c1OC`, 13.7 min; to `Oc1ccc2cccc(-n3cccc3)c2c1`, 14.1 min.

On to `CN1CCOC(c2ccccc2)c2ccccc2C1` (configuration not stated), for which the LC retention time was 10.1 min.

`O=C(Oc1ccccc1)c1cccnc1`: the LC retention time turned out to be 11.9 min. To `CC(C)Cc1ccc(C(C)C(=O)NCCCn2c3ccccc3c3ccccc32)cc1` (configuration not stated) belongs 20.1 min; to `c1cnc2[nH]ccc2c1`, 7.27 min; to `Cn1c(=O)n(-c2cccc(N)c2)c(=O)n1C`, 7.06 min.
